Patent US12264159B2, “Functionalized heterocycles as antiviral agents” (Enanta Pharmaceuticals, Inc., priority 2018, dated 2025)

Experiments:
HBV in 2.2.15 cells = assay: 2.2.15 cells: viral product in cell lysates quantified via quantitative real time PCR; assay type: cell-based, hepatitis B virus (HBV); settings: Hepatitis B virus, 120 h, day 5 post treatment, 50% reduction of viral product vs no drug controls, readout (qPCR, HBsAg or HBeAg) not specified for the column
Outline: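 2.2.15 cells (35,000/well, DMEM/F12, 10% FBS, G418) were treated with 5-fold serial compound dilutions, 0.5% DMSO final. After 5 days, lysates were quantified by qPCR, or supernatant HBsAg/HBeAg by ELISA; EC50 is the concentration giving 50% reduction versus no-drug controls.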

[1] = Compound induced cellular toxicity in HepG2 cells, ATPlite 1Step; assay type: cell-based; settings: human, three days exposure, 50% reduction of total ATP vs no drug controls
Method: At day 3, post seeding cells are treated with ATPlite 1Step according to the manufacturer's instructions.

## COc1cccc(-c2cnn3c2-c2cc(=O)c(C(=O)O)cn2[C@H](C(C)(C)C)C3)c1 [Example 113, (R)-6-(tert-butyl)-1-(3-methoxyphenyl)-10-oxo-5,6-dihydro-10H-pyrazolo[1,5-a]pyrido[2,1-c]pyrazine-9-carboxylic acid]
HBV in 2.2.15 cells
  EC50: < 0.1 µM
[1]
  CC50 at 3 days: > 25 µM

## CC(C)[C@@H]1Cn2nc(-c3ccccc3F)c(-c3ccccc3F)c2-c2cc(=O)c(C(=O)O)cn21 [Example 171, (R)-1,2-bis(2-fluorophenyl)-6-isopropyl-10-oxo-5,6-dihydro-10H-pyrazolo[1,5-a]pyrido[2,1-c]pyrazine-9-carboxylic acid]
HBV in 2.2.15 cells
  EC50: < 0.1 µM
[1]
  CC50 at 3 days: > 25 µM

## CC(C)(C)[C@@H]1Cn2nc(-c3ccc(F)cc3)c(F)c2-c2cc(=O)c(C(=O)O)cn21 [Example 93, (R)-6-(tert-butyl)-1-fluoro-2-(4-fluorophenyl)-10-oxo-5,6-dihydro-10H-pyrazolo[1,5-a]pyrido[2,1-c]pyrazine-9-carboxylic acid]
HBV in 2.2.15 cells
  EC50: < 0.1 µM
[1]
  CC50 at 3 days: > 25 µM

## CC(C)(C)[C@@H]1Cn2nc(-c3cc(F)ccc3C#N)cc2-c2cc(=O)c(C(=O)O)cn21 [Example 42, (R)-6-(tert-butyl)-2-(2-cyano-5-fluorophenyl)-10-oxo-5,6-dihydro-10H-pyrazolo[1,5-a]pyrido[2,2-c]pyrazine-12-carboxylic acid]
HBV in 2.2.15 cells
  EC50: < 0.1 µM
[1]
  CC50 at 3 days: > 25 µM

## CC(C)(C)[C@@H]1Cn2nc(-c3ccccc3OC(F)(F)F)cc2-c2cc(=O)c(C(=O)O)cn21 [Example 24, (R)-6-(tert-butyl)-10-oxo-2-(2-(trifluoromethoxy)phenyl)-5,6-dihydro-10H-pyrazolo[1,5-a]pyrido[2,2-c]pyrazine-12-carboxylic acid]
HBV in 2.2.15 cells
  EC50: < 0.1 µM
[1]
  CC50 at 3 days: > 25 µM

## CC(C)(C)[C@@H]1Cn2nc(C3CC3)c(-c3cccc(F)c3)c2-c2cc(=O)c(C(=O)O)cn21 [Example 147, (R)-6-(tert-butyl)-2-cyclopropyl-1-(3-fluorophenyl)-10-oxo-5,6-dihydro-10H-pyrazolo[1,5-a]pyrido[2,1-c]pyrazine-9-carboxylic acid]
HBV in 2.2.15 cells
  EC50: < 0.1 µM
[1]
  CC50 at 3 days: > 25 µM

## CC(C)(C)[C@@H]1Cn2nc(-c3ccc(F)cc3)c(-c3ccccc3F)c2-c2cc(=O)c(C(=O)O)cn21 [Example 169, (R)-6-(tert-butyl)-1-(2-fluorophenyl)-2-(4-fluorophenyl)-10-oxo-5,6-dihydro-10H-pyrazolo[1,5-a]pyrido[2,1-c]pyrazine-9-carboxylic acid]
HBV in 2.2.15 cells
  EC50: < 0.1 µM
[1]
  CC50 at 3 days: 10 to 25 µM

## CC(C)[C@@H]1Cn2nc(-c3ccccc3)c(-c3ccccc3)c2-c2c(F)c(=O)c(C(=O)O)cn21 [Example 186, (R)-11-fluoro-6-isopropyl-10-oxo-1,2-diphenyl-5,6-dihydro-10H-pyrazolo[1,5-a]pyrido[2,1-c]pyrazine-9-carboxylic acid]
HBV in 2.2.15 cells
  EC50: < 0.1 µM
[1]
  CC50 at 3 days: > 25 µM

## COc1c(-c2cc3n(n2)C[C@@H](C(C)(C)C)n2cc(C(=O)O)c(=O)cc2-3)ccc(F)c1F [Example 69, (R)-6-(tert-butyl)-2-(3,4-difluoro-2-methoxyphenyl)-10-oxo-5,6-dihydro-10H-pyrazolo[1,5-a]pyrido[2,2-c]pyrazine-12-carboxylic acid]
HBV in 2.2.15 cells
  EC50: < 0.1 µM
[1]
  CC50 at 3 days: > 25 µM

## COc1ccc(OC)c(-c2cc3n(n2)C[C@@H](C(C)(C)C)n2cc(C(=O)O)c(=O)cc2-3)c1OC [Example 35, (R)-6-(tert-butyl)-10-oxo-2-(2,3,6-trimethoxyphenyl)-5,6-dihydro-10H-pyrazolo[1,5-a]pyrido[2,2-c]pyrazine-12-carboxylic acid]
HBV in 2.2.15 cells
  EC50: 0.2 to 1 µM
[1]
  CC50 at 3 days: > 25 µM

## CC(C)(C)[C@@H]1Cn2ncc(-c3ccccc3)c2-c2cc(=O)c(C(=O)O)cn21 [Example 107, (R)-6-(tert-butyl)-10-oxo-1-phenyl-5,6-dihydro-10H-pyrazolo[1,5-a]pyrido[2,1-c]pyrazine-9-carboxylic acid]
HBV in 2.2.15 cells
  EC50: < 0.1 µM
[1]
  CC50 at 3 days: < 10 µM

## COc1ccc(-c2nn3c(c2-c2ccc(OC)cc2)-c2cc(=O)c(C(=O)O)cn2[C@H](C(C)(C)C)C3)cc1 [Example 98, (R)-6-(tert-butyl)-1,2-bis(4-methoxyphenyl)-10-oxo-5,6-dihydro-10H-pyrazolo[1,5-a]pyrido[2,1-c]pyrazine-9-carboxylic acid]
HBV in 2.2.15 cells
  EC50: < 0.1 µM
[1]
  CC50 at 3 days: > 25 µM

## CC(C)(C)[C@@H]1Cn2nc(-c3c(F)cccc3F)cc2-c2cc(=O)c(C(=O)O)cn21 [Example 29, (R)-6-(tert-butyl)-2-(2,6-difluorophenyl)-10-oxo-5,6-dihydro-10H-pyrazolo[1,5-a]pyrido[2,2-c]pyrazine-12-carboxylic acid]
HBV in 2.2.15 cells
  EC50: < 0.1 µM
[1]
  CC50 at 3 days: > 25 µM

## CC(C)(C)[C@@H]1Cn2nnc(-c3ccc(F)cc3)c2-c2cc(=O)c(C(=O)O)cn21 [Example 208, (R)-6-(tert-butyl)-1-(4-fluorophenyl)-10-oxo-5,6-dihydro-10H-pyrido[1,2-a][1,2,3]triazolo[5,1-c]pyrazine-9-carboxylic acid]
HBV in 2.2.15 cells
  EC50: < 0.1 µM
[1]
  CC50 at 3 days: > 25 µM

## CC(C)(C)[C@@H]1Cn2ncc(-c3ccc(F)cc3F)c2-c2cc(=O)c(C(=O)O)cn21 [Example 100, (R)-6-(tert-butyl)-1-(2,4-difluorophenyl)-10-oxo-5,6-dihydro-10H-pyrazolo[1,5-a]pyrido[2,1-c]pyrazine-9-carboxylic acid]
HBV in 2.2.15 cells
  EC50: < 0.1 µM
[1]
  CC50 at 3 days: > 25 µM

## CC(C)[C@@H]1Cn2nc(C3CC3)c(-c3cccc(O)c3)c2-c2cc(=O)c(C(=O)O)cn21 [Example 142, (R)-2-cyclopropyl-1-(3-hydroxyphenyl)-6-isopropyl-10-oxo-5,6-dihydro-10H-pyrazolo[1,5-a]pyrido[2,1-c]pyrazine-9-carboxylic acid]
HBV in 2.2.15 cells
  EC50: < 0.1 µM
[1]
  CC50 at 3 days: > 25 µM

## CC(C)(C)[C@@H]1Cn2nc(-c3ccc(F)cc3)c(-c3ccccc3)c2-c2cc(=O)c(C(=O)O)cn21 [Example 166, (R)-6-(tert-butyl)-2-(4-fluorophenyl)-10-oxo-1-phenyl-5,6-dihydro-10H-pyrazolo[1,5-a]pyrido[2,1-c]pyrazine-9-carboxylic acid]
HBV in 2.2.15 cells
  EC50: < 0.1 µM
[1]
  CC50 at 3 days: > 25 µM

## CC(C)(C)[C@@H]1Cn2nc(-c3ccccc3OC(F)F)cc2-c2cc(=O)c(C(=O)O)cn21 [Example 68, (R)-6-(tert-butyl)-2-(2-(difluoromethoxy)phenyl)-10-oxo-5,6-dihydro-10H-pyrazolo[1,5-a]pyrido[2,2-c]pyrazine-12-carboxylic acid]
HBV in 2.2.15 cells
  EC50: < 0.1 µM
[1]
  CC50 at 3 days: > 25 µM

## CC(C)[C@@H]1Cn2nc(-c3ccccc3F)c(-c3ccccc3F)c2-c2c(F)c(=O)c(C(=O)O)cn21 [Example 182, (R)-11-fluoro-1,2-bis(2-fluorophenyl)-6-isopropyl-10-oxo-5,6-dihydro-10H-pyrazolo[1,5-a]pyrido[2,1-c]pyrazine-9-carboxylic acid]
HBV in 2.2.15 cells
  EC50: < 0.1 µM
[1]
  CC50 at 3 days: > 25 µM

## CC(C)(C)[C@@H]1Cn2nc(-c3cccc4c3OCCO4)cc2-c2cc(=O)c(C(=O)O)cn21 [Example 57, (R)-6-(tert-butyl)-2-(2,3-dihydrobenzo[b][1,4]dioxin-5-yl)-10-oxo-5,6-dihydro-10H-pyrazolo[1,5-a]pyrido[2,2-c]pyrazine-12-carboxylic acid]
HBV in 2.2.15 cells
  EC50: < 0.1 µM
[1]
  CC50 at 3 days: > 25 µM

## CC(C)(C)[C@@H]1Cn2nc(-c3ccc(Cl)cc3)cc2-c2cc(=O)c(C(=O)O)cn21 [Example 13, (R)-6-(tert-butyl)-2-(4-chlorophenyl)-10-oxo-5,6-dihydro-10H-pyrazolo[1,5-a]pyrido[2,2-c]pyrazine-12-carboxylic acid]
HBV in 2.2.15 cells
  EC50: < 0.1 µM
[1]
  CC50 at 3 days: > 25 µM

## CC(C)(C)[C@@H]1Cn2nc(-c3ccccc3F)c(-c3ccccc3F)c2-c2cc(=O)c(C(=O)O)cn21 [Example 95, (R)-6-(tert-butyl)-1,2-bis(2-fluorophenyl)-10-oxo-5,6-dihydro-10H-pyrazolo[1,5-a]pyrido[2,1-c]pyrazine-9-carboxylic acid]
HBV in 2.2.15 cells
  EC50: < 0.1 µM
[1]
  CC50 at 3 days: > 25 µM

## CC(C)(C)[C@@H]1Cn2nc(-c3cccc(F)c3)c(-c3cccc(F)c3)c2-c2cc(=O)c(-c3ncn[nH]3)cn21 [Example 193, (R)-6-(tert-butyl)-1,2-bis(3-fluorophenyl)-9-(1H-1,2,4-triazol-5-yl)-5,6-dihydro-10H-pyrazolo[1,5-a]pyrido[2,1-c]pyrazin-10-one]
HBV in 2.2.15 cells
  EC50: < 0.1 µM
[1]
  CC50 at 3 days: > 25 µM

## CC(C)(C)[C@@H]1Cn2nc(-c3ccccc3OCC3CC3)cc2-c2cc(=O)c(C(=O)O)cn21 [Example 75, (R)-6-(tert-butyl)-2-(2-(cyclopropylmethoxy)phenyl)-10-oxo-5,6-dihydro-10H-pyrazolo[1,5-a]pyrido[2,2-c]pyrazine-12-carboxylic acid]
HBV in 2.2.15 cells
  EC50: < 0.1 µM
[1]
  CC50 at 3 days: > 25 µM

## CC(C)(C)[C@@H]1Cn2nc(-c3cccc(OC(F)(F)F)c3)cc2-c2cc(=O)c(C(=O)O)cn21 [Example 17, (R)-6-(tert-butyl)-10-oxo-2-(3-(trifluoromethoxy)phenyl)-5,6-dihydro-10H-pyrazolo[1,5-a]pyrido[2,2-c]pyrazine-12-carboxylic acid]
HBV in 2.2.15 cells
  EC50: < 0.1 µM
[1]
  CC50 at 3 days: > 25 µM

## CC(C)(C)[C@@H]1Cn2nc(-c3cccc4cn[nH]c34)cc2-c2cc(=O)c(C(=O)O)cn21 [Example 67, (R)-6-(tert-butyl)-2-(1H-indazol-7-yl)-10-oxo-5,6-dihydro-10H-pyrazolo[1,5-a]pyrido[2,2-c]pyrazine-12-carboxylic acid]
HBV in 2.2.15 cells
  EC50: < 0.1 µM
[1]
  CC50 at 3 days: > 25 µM

## CC(C)(C)[C@@H]1Cn2nc(C3CC3)c(-c3cccc(F)c3)c2-c2cc(=O)c(-c3ncn[nH]3)cn21 [Example 197, (R)-6-(tert-butyl)-2-cyclopropyl-1-(3-fluorophenyl)-9-(1H-1,2,4-triazol-5-yl)-5,6-dihydro-10H-pyrazolo[1,5-a]pyrido[2,1-c]pyrazin-10-one]
HBV in 2.2.15 cells
  EC50: < 0.1 µM
[1]
  CC50 at 3 days: > 25 µM
